Active and inactive are the calls of the source. No cut-off for these calls is given here.
Assays:
[1] = Plasma concentration in HLA-B27 rat at 100 mg/kg, po bid administered for 11 days measured 12 hrs post last dose; format: ADME, organism-based; parameters: dose 100 mg/kg, route oral
Cavia porcellus = experiment: Reduction on allergenic encephalomyelitis guinea pig EAE model at 300 mg/kg, po bid; format: functional, organism-based; parameters: dose 300 mg/kg
Liver microsomes [2] = experiment: Drug metabolism in human liver microsomes assessed as (S)-2-(2-(ethylamino)-5-(N-isopropylmethylsulfonamido)pyrimidin-4-ylamino)-3-(4-(pyrrolidine-1-carbonyloxy)phenyl)propanoic acid synthesis; format: ADME, Microsome
Liver microsomes [3] = experiment: Drug metabolism in rat liver microsomes assessed as (S)-2-(2-(ethylamino)-5-(N-isopropylmethylsulfonamido)pyrimidin-4-ylamino)-3-(4-(pyrrolidine-1-carbonyloxy)phenyl)propanoic acid synthesis; format: ADME, Microsome
[4] = Plasma concentration in rat at 1000 mg/kg, po administered for 10 days measured 24 hrs post last dose; format: ADME, organism-based; parameters: dose 1000 mg/kg, route oral
[5] = Plasma concentration in rat at 300 mg/kg, po administered for 10 days measured 24 hrs post last dose; format: ADME, organism-based; parameters: dose 300 mg/kg, route oral
[6] = Plasma concentration in rat at 100 mg/kg, po administered for 10 days measured 24 hrs post last dose; format: ADME, organism-based; parameters: dose 100 mg/kg, route oral
[7] = Plasma concentration in rat at 30 mg/kg, po administered for 10 days measured 24 hrs post last dose; format: ADME, organism-based; parameters: dose 30 mg/kg, route oral
Rattus norvegicus = experiment: Toxicity in rat assessed as weight gain at 1 to 1000 mg/kg, po after 10 days; format: organism-based; parameters: dose 1-1000 mg/kg, route oral; conditions: in vivo, 240 h
[8] = Plasma concentration in rat at 10 mg/kg, po administered for 10 days measured 24 hrs post last dose; format: ADME, organism-based; parameters: dose 10 mg/kg, route oral
[9] = Plasma concentration in rat at 1000 mg/kg, po after 24 hrs; format: ADME, organism-based; parameters: dose 1000 mg/kg, route oral
[10] = Plasma concentration in rat at 100 mg/kg, po after 24 hrs; format: ADME, organism-based; parameters: dose 100 mg/kg, route oral
[11] = Plasma concentration in rat at 300 mg/kg, po after 24 hrs; format: ADME, organism-based; parameters: dose 300 mg/kg, route oral
[12] = Plasma concentration in rat at 30 mg/kg, po after 24 hrs; format: ADME, organism-based; parameters: dose 30 mg/kg, route oral
[13] = Plasma concentration in rat at 10 mg/kg, po after 24 hrs; format: ADME, organism-based; parameters: dose 10 mg/kg, route oral
[14] = Plasma concentration in rat at 3 mg/kg, po after 24 hrs; format: ADME, organism-based; parameters: dose 3 mg/kg, route oral
[15] = AUC (0 to infinity) in rat at 1000 mg/kg, po; format: ADME, organism-based; parameters: time infinity, dose 1000 mg/kg, route oral; conditions: plasma
[16] = AUC (0 to infinity) in rat at 300 mg/kg, po; format: ADME, organism-based; parameters: time infinity, dose 300 mg/kg, route oral; conditions: plasma
[17] = AUC (0 to infinity) in rat at 30 mg/kg, po; format: ADME, organism-based; parameters: time infinity, dose 30 mg/kg, route oral; conditions: plasma
[18] = AUC (0 to infinity) in rat at 100 mg/kg, po; format: ADME, organism-based; parameters: time infinity, dose 100 mg/kg, route oral; conditions: plasma
[19] = AUC (0 to infinity) in rat at 10 mg/kg, po; format: ADME, organism-based; parameters: time infinity, dose 10 mg/kg, route oral; conditions: plasma
[20] = AUC (0 to infinity) in rat at 3 mg/kg, po; format: ADME, organism-based; parameters: time infinity, dose 3 mg/kg, route oral; conditions: plasma
[21] = Cmax in rat at 1000 mg/kg, po; format: ADME, organism-based; parameters: dose 1000 mg/kg, route oral; conditions: in vivo
[22] = AUC (0 to infinity) in rat at 1 mg/kg, po; format: ADME, organism-based; parameters: time infinity, dose 1 mg/kg, route oral; conditions: plasma
[23] = Cmax in rat at 300 mg/kg, po; format: ADME, organism-based; parameters: dose 300 mg/kg, route oral; conditions: in vivo
[24] = Cmax in rat at 30 mg/kg, po; format: ADME, organism-based; parameters: dose 30 mg/kg, route oral; conditions: in vivo
[25] = Cmax in rat at 100 mg/kg, po; format: ADME, organism-based; parameters: dose 100 mg/kg, route oral; conditions: in vivo
[26] = Cmax in rat at 3 mg/kg, po; format: ADME, organism-based; parameters: dose 3 mg/kg, route oral; conditions: in vivo
[27] = Cmax in rat at 10 mg/kg, po; format: ADME, organism-based; parameters: dose 10 mg/kg, route oral; conditions: in vivo
[28] = Volume of distribution at steady state in iv dosed rat; format: ADME, organism-based; conditions: in vivo, read-out: Vdss
[29] = Oral bioavailability in rat; format: ADME, organism-based; conditions: in vivo
[30] = Cmax in rat at 1 mg/kg, po; format: ADME, organism-based; parameters: dose 1 mg/kg, route oral; conditions: in vivo
[31] = Apparent volume of distribution in iv dosed rat; format: ADME, organism-based; conditions: in vivo, read-out: Vz
[32] = Clearance in iv dosed rat; format: ADME, organism-based; conditions: in vivo
[33] = Half life in iv dosed rat; format: ADME, organism-based; conditions: in vivo
[34] = AUC (0 to infinity) in po dosed rat; format: ADME, organism-based; parameters: route oral, time infinity; conditions: plasma
[35] = Cmax in po dosed rat; format: ADME, organism-based; parameters: route oral; conditions: in vivo
[36] = Plasma concentration in rat at 1 mg/kg, po after 24 hrs; format: ADME, organism-based; parameters: dose 1 mg/kg, route oral
Integrin alpha-4/beta-1 [37] = molecular target: T1, Integrin alpha-4/beta-1 (Homo sapiens, UniProt P05556+P13612); experiment: Inhibition of alpha4beta1 integrin-mediated human jurkat cell adhesion to fibronectin in absence of human serum albumin; format: protein-complex assay
Integrin alpha-4/beta-1 [38] = molecular target: T1, Integrin alpha-4/beta-1; experiment: Inhibition of alpha4beta1 integrin-mediated human jurkat cell adhesion to fibronectin in presence of human serum albumin; format: protein-complex assay

T1 sequence (P05556 whole entry): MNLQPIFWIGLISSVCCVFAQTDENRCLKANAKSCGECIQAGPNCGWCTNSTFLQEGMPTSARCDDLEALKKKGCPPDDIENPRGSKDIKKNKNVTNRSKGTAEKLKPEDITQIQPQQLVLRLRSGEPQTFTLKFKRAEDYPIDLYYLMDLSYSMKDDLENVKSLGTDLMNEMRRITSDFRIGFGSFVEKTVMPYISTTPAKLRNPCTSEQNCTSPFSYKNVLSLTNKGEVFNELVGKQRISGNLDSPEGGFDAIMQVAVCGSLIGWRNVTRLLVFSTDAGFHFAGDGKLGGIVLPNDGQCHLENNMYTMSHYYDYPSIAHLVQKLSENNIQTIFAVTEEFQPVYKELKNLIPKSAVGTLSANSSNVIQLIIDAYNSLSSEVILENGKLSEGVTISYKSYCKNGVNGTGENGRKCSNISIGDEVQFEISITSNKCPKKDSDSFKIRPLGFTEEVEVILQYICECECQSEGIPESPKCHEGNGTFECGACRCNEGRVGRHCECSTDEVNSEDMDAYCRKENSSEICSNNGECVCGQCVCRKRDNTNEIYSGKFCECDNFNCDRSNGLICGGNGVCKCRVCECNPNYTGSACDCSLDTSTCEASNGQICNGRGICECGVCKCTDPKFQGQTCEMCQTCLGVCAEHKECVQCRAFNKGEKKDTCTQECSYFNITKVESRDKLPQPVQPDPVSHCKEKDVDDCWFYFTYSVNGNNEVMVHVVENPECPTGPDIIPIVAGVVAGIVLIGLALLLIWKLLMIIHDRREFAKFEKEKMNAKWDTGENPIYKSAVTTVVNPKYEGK
T1 sequence (P13612 whole entry): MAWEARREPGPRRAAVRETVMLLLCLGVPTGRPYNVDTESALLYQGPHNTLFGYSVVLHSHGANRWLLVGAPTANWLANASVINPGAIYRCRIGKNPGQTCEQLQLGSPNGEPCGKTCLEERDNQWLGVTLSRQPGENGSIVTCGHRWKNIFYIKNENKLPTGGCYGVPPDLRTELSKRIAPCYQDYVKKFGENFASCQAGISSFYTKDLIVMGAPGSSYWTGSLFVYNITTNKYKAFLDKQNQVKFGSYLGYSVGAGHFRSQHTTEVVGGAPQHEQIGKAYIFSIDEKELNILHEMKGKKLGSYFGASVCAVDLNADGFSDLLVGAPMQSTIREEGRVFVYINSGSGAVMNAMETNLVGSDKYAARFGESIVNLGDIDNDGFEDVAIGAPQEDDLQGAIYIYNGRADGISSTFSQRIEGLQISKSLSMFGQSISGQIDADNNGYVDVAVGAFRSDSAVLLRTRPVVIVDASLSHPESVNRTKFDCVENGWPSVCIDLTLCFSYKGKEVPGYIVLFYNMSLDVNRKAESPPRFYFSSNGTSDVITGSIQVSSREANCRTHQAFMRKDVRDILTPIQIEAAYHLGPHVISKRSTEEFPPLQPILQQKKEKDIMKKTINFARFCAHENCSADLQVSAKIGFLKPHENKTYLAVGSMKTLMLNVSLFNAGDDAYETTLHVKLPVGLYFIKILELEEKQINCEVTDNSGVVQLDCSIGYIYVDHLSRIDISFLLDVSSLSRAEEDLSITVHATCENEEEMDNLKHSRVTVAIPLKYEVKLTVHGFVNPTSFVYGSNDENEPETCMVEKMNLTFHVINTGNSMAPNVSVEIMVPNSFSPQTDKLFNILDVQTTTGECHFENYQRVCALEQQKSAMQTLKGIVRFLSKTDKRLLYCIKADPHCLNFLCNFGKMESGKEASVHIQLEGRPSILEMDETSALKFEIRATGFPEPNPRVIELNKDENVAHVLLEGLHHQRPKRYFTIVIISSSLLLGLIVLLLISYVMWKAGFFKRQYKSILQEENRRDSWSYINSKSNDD

Which concentration at 12 h [1] does the source give for `CCN(CC)c1ncc(N(C(C)C)S(C)(=O)=O)c(N[C@@H](Cc2ccc(OC(=O)N3CCCC3)cc2)C(=O)O)n1` here?
The concentration at 12 h was 2500 ng/mL.

What about the Activity (Cavia porcellus) of the same molecule?
The Activity was “inactive”.

What about the Drug metabolism (Liver microsomes [2]) of the same molecule?
Its Drug metabolism is “Active”.

And the Drug metabolism (Liver microsomes [3])?
Its Drug metabolism is “Active”.

What about the concentration at 24 h [4] of the same molecule?
The concentration at 24 h was 100000 ng/mL.

And the concentration at 24 h [5]?
Its concentration at 24 h is 43100 ng/mL.

What about the concentration at 24 h [6] of the same molecule?
Its concentration at 24 h is 28500 ng/mL.

And the concentration at 24 h [7]?
Its concentration at 24 h is 13000 ng/mL.

What about the Activity (Rattus norvegicus) of the same molecule?
Its Activity is “Non-toxic”.

And the concentration at 24 h [8]?
The concentration at 24 h was 3380 ng/mL.

What about the concentration at 24 h [9] of the same molecule?
Its concentration at 24 h is 71400 ng/mL.

And the concentration at 24 h [10]?
Its concentration at 24 h is 13600 ng/mL.

And the concentration at 24 h [11]?
Its concentration at 24 h is 46200 ng/mL.

And the concentration at 24 h [12]?
Its concentration at 24 h is 4250 ng/mL.

And the concentration at 24 h [13]?
The concentration at 24 h was 1010 ng/mL.

What about the concentration at 24 h [14] of the same molecule?
Its concentration at 24 h is 358 ng/mL.

And the AUC(0-inf) [15]?
The AUC(0-inf) was 4480 µg·h/mL.

What about the AUC(0-inf) [16] of the same molecule?
The AUC(0-inf) was 2980 µg·h/mL.

What about the AUC(0-inf) [17] of the same molecule?
The AUC(0-inf) was 275 µg·h/mL.

What about the AUC(0-inf) [18] of the same molecule?
Its AUC(0-inf) is 1260 µg·h/mL.

And the AUC(0-inf) [19]?
Its AUC(0-inf) is 76 µg·h/mL.

And the AUC(0-inf) [20]?
The AUC(0-inf) was 24.2 µg·h/mL.

What about the Cmax [21] of the same molecule?
Its Cmax is 214000 ng/mL.

What about the AUC(0-inf) [22] of the same molecule?
Its AUC(0-inf) is 5.9 µg·h/mL.

What about the Cmax [23] of the same molecule?
Its Cmax is 153000 ng/mL.

What about the Cmax [24] of the same molecule?
The Cmax was 17400 ng/mL.

And the Cmax [25]?
Its Cmax is 105000 ng/mL.

And the Cmax [26]?
The Cmax was 1100 ng/mL.

And the Cmax [27]?
Its Cmax is 3600 ng/mL.

And the Vd [28]?
Its Vd is 0.068 L/kg.

What about the bioavailability [29] of the same molecule?
Its bioavailability is 17%.

What about the Cmax [30] of the same molecule?
The Cmax was 230 ng/mL.

What about the Vd [31] of the same molecule?
The Vd was 0.108 L/kg.

And the clearance [32]?
Its clearance is 0.172 mL/min/kg.

And the half-life [33]?
Its half-life is 7.3 h.

What about the AUC(0-inf) [34] of the same molecule?
Its AUC(0-inf) is 221 µg·h/mL.

What about the Cmax [35] of the same molecule?
Its Cmax is 16500 ng/mL.

And the concentration at 24 h [36]?
Its concentration at 24 h is 110 ng/mL.

Which AUC(0-inf) [34] does the source give for `CCNc1ncc(N(C(C)C)S(C)(=O)=O)c(N[C@@H](Cc2ccc(OC(=O)N3CCCC3)cc2)C(=O)O)n1` here?
Its AUC(0-inf) is 6.8 µg·h/mL.

And the Cmax [35]?
Its Cmax is 1400 ng/mL.

And the IC50 (Integrin alpha-4/beta-1 [37])?
The IC50 was 0.0233 µM.

What about the IC50 (Integrin alpha-4/beta-1 [38]) of the same molecule?
The IC50 was 4.82 µM.
